{"source": "patent US20210379062A1", "about": "“The use of a H3R inverse agonist for the treatment of excessive daytime sleepiness associated with parkinson's disease (PD)” (Novartis AG, priority 2018, published 2021)", "biological_target": "H3 receptors in the brain (Homo sapiens, UniProt Q9Y5N1)", "sequence (Q9Y5N1 whole entry)": "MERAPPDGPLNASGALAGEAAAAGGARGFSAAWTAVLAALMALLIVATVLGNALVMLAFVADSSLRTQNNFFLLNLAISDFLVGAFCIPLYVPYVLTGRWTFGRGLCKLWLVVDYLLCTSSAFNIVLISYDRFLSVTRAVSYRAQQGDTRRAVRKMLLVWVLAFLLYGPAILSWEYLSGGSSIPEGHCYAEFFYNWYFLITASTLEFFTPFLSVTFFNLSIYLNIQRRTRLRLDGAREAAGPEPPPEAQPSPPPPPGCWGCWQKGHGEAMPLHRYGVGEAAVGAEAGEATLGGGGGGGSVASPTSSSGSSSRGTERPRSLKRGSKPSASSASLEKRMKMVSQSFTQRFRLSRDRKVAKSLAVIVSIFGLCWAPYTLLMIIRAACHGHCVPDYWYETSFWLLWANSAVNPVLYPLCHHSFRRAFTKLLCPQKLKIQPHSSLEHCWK", "test": "PET brain H3 receptor occupancy study with [11C]MK-8278 in healthy volunteers", "type": "in vivo", "protocol": "An open-label, adaptive design study was performed in healthy volunteers to characterize regional brain H3 receptor occupancy following single dose of Compound (I) by using positron emission tomography (PET) with the radioligand [^11C]MK-8278 (Van Laere, K. J. et al, Journal of Nuclear Medicine, 2014, 55: 65-72). The primary objective of this study was to evaluate the plasma concentration of Compound (I) leading to 50% occupancy of H3 receptors in the brain (EC50). A total of 6 subjects were enrolled into the study and were scanned in three cohorts of two subjects each. Prior to dosing with Compound (I), each subject underwent a baseline PET scan to assess binding of [^11C]MK-8278 to H3R in the absence of Compound (I). Subjects subsequently received single oral doses of Compound (I) and then underwent two post-dose PET scans. Subjects of cohort 1 received a single oral dose of 300 mg of Compound (I), corresponding to the single dose maximum tolerated dose (MTD) determined from the Phase I study after single oral dose of Compound (I). These subjects underwent two post-dose PET scans, at 3 hours and 27 hours after dosing. The doses and scan timings for the subsequent cohorts were selected based on interim data analyses following the completion of the preceding cohort(s). Subjects of cohorts 2 and 3 received a single oral dose of 10 mg and 0.3 mg, respectively. Compound (I) was administered as capsules in cohorts 1 and 2, whereas cohort 3 received Compound (I) as an oral solution. […] The first post-dose PET scan for cohorts 2 and 3 was acquired at 3 hours and the second one at 27 hours and 8 hours after dosing, respectively.\nThe binding was consistent with both the known distribution of H3 receptors and previous [^11C]MK-8278 data (Van Laere, K. J. et al, Journal of Nuclear Medicine, 2014, 55: 65-72). The kinetics of [^11C]MK-8278 in brain were analyzed using different modelling approaches, such as the one- and two-tissue compartment (1TC, 2TC) models, multilinear analysis (MA1; Ichise, M. et al., Journal of Cerebral Blood Flow and Metabolism, 2002, 22: 1271-1281) and the Logan graphical method (Logan, J. et al., Journal of Cerebral Blood Flow and Metabolism, 1990, 10(5): 740-747). All methods produced similar results, but the 2TC model was the most appropriate to derive regional VT values. Tissue time-activity curves (TACs) were generated for all scans and were characterized by a peak at around 5-15 minutes post-injection, followed by washout. After administration of Compound (I), regional binding of [^11C]MK-8278 was reduced compared to baseline scans, indicating engagement of Compound (I) with the target. The occupancy plot method proposed by Lassen (Lassen, N. A. et al., Journal of Cerebral Blood Flow and Metabolism, 1995, 15 (1): 152-165; Cunningham, V. J. et al., Journal of Cerebral Blood Flow and Metabolism, 2010, 30 (1): 46-50) was applied to estimate whole-brain H3 receptor occupancy for each post-dose PET scan. This method also provided consistent estimates of the non-displaceable component (VND).\nThe relationship between plasma concentration of Compound (I) and H3 receptor occupancy was characterized plotting occupancy estimates against corresponding plasma concentration data (measured at the start of each post-dose PET scan). The RO versus concentration was analyzed using the Emax model:\nWhere RO=Receptor occupancy; Emax=maximum receptor occupancy; Cp=plasma concentration of Compound (I) during PET scan; EC50=plasma concentration leading to 50% of maximum change in RO.", "note": "“And” between values parts separate entries of the source, which are not always exact repeats. Equal entries are not always repeated.", "data": [{"smiles": "Cn1nc(N2CCC(OC(=O)N3CCN(C4CCC4)CC3)CC2)ccc1=O", "note": "[Compound (I), 1-(1-methyl-6-oxo-1,6-dihydropyridazin-3-yl)piperidin-4-yl 4-cyclobutylpiperazine-1-carboxylate]", "values": [{"measurement": "Emax (maximum receptor occupancy)", "setting": "Emax model of PK-RO relationship", "value": "96.1% and 96.16%"}, {"measurement": "Receptor occupancy (RO)", "setting": "first cohort, single oral dose 300 mg, 3 hours post-dose, both subjects", "value": "higher than 95%"}, {"measurement": "Receptor occupancy (RO)", "setting": "first cohort, single oral dose 300 mg, 27 hours post-dose, both subjects", "value": "higher than 95%"}, {"measurement": "EC50", "setting": "read-out: EC50 (plasma concentration leading to 50% occupancy of H3 receptors), Emax model of PK-RO relationship, plasma concentration", "value": 0.772, "unit": "nM"}, {"measurement": "Receptor occupancy (RO)", "setting": "second cohort, single oral dose 10 mg, 3 hours post dose", "value": "similarly high"}, {"measurement": "Receptor occupancy (RO)", "setting": "second cohort, single oral dose 10 mg, 27 hours post dose", "value": "decreased"}, {"measurement": "Receptor occupancy (RO)", "setting": "third cohort, single oral dose 0.3 mg, 3 h and 8 h post dose", "value": "generally lower than in the other cohorts"}]}]}
